We go through 1 compound from BindingDB's records for doi:10.1016/j.bmc.2016.01.042 (University of California, 2016).

This assay concerns the target T1, Polyunsaturated fatty acid lipoxygenase ALOX15 (Homo sapiens, UniProt P16050).
T1 sequence (P16050 whole entry): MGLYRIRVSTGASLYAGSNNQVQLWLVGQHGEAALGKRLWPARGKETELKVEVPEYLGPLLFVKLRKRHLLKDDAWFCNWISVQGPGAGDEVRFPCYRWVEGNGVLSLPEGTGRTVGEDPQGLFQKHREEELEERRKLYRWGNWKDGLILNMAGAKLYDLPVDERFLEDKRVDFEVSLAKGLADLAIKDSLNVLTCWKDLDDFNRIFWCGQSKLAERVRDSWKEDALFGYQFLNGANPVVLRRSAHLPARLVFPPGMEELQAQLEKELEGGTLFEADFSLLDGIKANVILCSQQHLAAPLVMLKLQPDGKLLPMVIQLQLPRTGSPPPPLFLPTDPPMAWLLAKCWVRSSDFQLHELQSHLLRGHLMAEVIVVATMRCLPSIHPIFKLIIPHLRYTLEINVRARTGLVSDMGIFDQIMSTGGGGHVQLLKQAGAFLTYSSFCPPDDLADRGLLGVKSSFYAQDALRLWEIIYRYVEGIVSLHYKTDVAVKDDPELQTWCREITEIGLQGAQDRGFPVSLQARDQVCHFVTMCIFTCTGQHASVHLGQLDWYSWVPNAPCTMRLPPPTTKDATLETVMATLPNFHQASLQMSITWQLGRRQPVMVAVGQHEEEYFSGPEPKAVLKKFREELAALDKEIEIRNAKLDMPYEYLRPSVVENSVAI
Briefly: Competitive inhibition of N-terminal His6-tagged human 12/15-LOX using arachidonic acid as substrate by Dixon plot analysis.

What is called Ki is a measure of affinity in units of concentration, obtained from inhibition or displacement. Read a high Ki as a looser hold on the target. With `Cc1ccc(O)c(-c2cc(-c3ccccc3C)[nH]n2)c1` [4-methyl-2-[5-(2-methylphenyl)-1H-pyrazol-3-yl]phenol], the Ki was found to be 1000 nM.
